# Measured values taken from publication PMC3199943, “Screening the MayBridge Rule of 3 Fragment Library for Compounds That Interact with the Trypanosoma brucei myo-Inositol-3-Phosphate Synthase and/or Show Trypanocidal Activity” (Molecular Biology International, 2011).
# System: HeLa cells
# Assay: cells
# Conditions: Homo sapiens, HeLa, 65 h, read-out: HeLa Cells Alamar Blue
# Summary of the method: (§1)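 Alamar Blue read-out after a 5 h dye incubation that followed ~65 h compound exposure. Cells: HeLa or A549, 2 × 10^4/well, DMEM + 10% FCS + 2 mM L-Glutamine.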
row,Structure (SMILES),viability at 500 µM
1,"O=C(O)c1cnccc1C(F)(F)F [compound 553, 4‐(trifluoromethyl)nicotinic acid]",102 ± 12.4%
2,"O=C(O)c1cc2ccccc2cn1 [compound 555, isoquinoline‐3‐carboxylic acid hydrate]",92.1 ± 10.1%
3,"OCc1ccc(-c2ccccn2)s1 [compound 556, [5‐(2‐pyridinyl)‐2‐thienyl]methanol]",70.2 ± 11%
4,"NC(=S)C1=Cc2ccccc2OC1 [compound 558, 2H‐chromene‐3‐carbothioamide]",80.8 ± 8.8%
5,"CN1CCN(c2ccccc2N)CC1 [compound 561, 2‐(4‐methylpiperazin‐1‐yl)aniline]",74.3 ± 11.7%
6,"OCc1ccc(OC(F)(F)F)cc1 [compound 563, [4‐(trifluoromethoxy)phenyl]methanol]",94.5 ± 8.3%
7,"OCc1csc(-c2cccnc2)n1 [compound 566, (2‐pyridin‐3‐yl‐1,3‐thiazol‐4‐yl)methanol]",88.4 ± 18.2%
8,"Nc1ccc(CN2CCOCC2)cc1 [compound 567, 4‐(morpholinomethyl)aniline]",90.1 ± 15.9%
9,"OCc1ccnc(N2CCCCC2)c1 [compound 568, (2‐piperidinopyrid‐4‐yl)methanol]",94.5 ± 18.7%
10,"Nc1ccccc1CN1CCOCC1 [compound 570, 2‐(morpholin‐4‐ylmethyl)aniline]",93.2 ± 17.1%
11,"NCc1ccccc1N1CCOCC1 [compound 571, 2‐morpholinobenzylamine]",95 ± 17.5%
12,"OCc1cccnc1N1CCCCC1 [compound 572, (2‐piperidino‐3‐pyridinyl)methanol]",65.1 ± 5.7%
13,"c1ccc(Sc2ccsc2)cc1 [compound 574, 3‐(phenylthio)thiophene]",98.8 ± 18.5%
14,"O=C(O)c1sccc1-n1cccc1 [compound 577, 3-(1H-pyrrol-1-yl)thiophene-2-carboxylic acid]",103 ± 2.8%
15,"OCc1ccc(N2CCOCC2)cc1 [compound 578, (4‐morpholin‐4‐yl‐phenyl)‐methanol]",42.3 ± 9%
16,"OCc1cccc(N2CCOCC2)c1 [compound 579, (3‐morpholinophenyl)methanol]",100 ± 13.5%
17,"OCc1ccccc1N1CCOCC1 [compound 580, (2‐morpholinophenyl)methanol]",91.3 ± 16%
18,"Cc1cc(C(=O)O)c(C(F)(F)F)o1 [compound 583, 5‐methyl‐2‐(trifluoromethyl)‐3‐furoic acid]",86.1 ± 15.8%
19,"CC(=O)c1cc(Cl)sc1Cl [compound 590, 1‐(2,5‐dichloro‐3‐thienyl)ethan‐1‐one]",97.7 ± 13.9%

# Same assay, conditions: Homo sapiens, HeLa, 65 h, read-out: HeLa Cells Alamar Blue (% survival)
row,Structure (SMILES),viability at 500 µM
1,"O=C(O)c1sccc1-n1cccc1 [compound 577, 3-(1H-pyrrol-1-yl)thiophene-2-carboxylic acid]",103 ± 2.8%

# Same assay, conditions: Homo sapiens, HeLa, read-out: HeLa ED50
row,Structure (SMILES),CC50
1,"O=C(O)c1sccc1-n1cccc1 [compound 577, 3-(1H-pyrrol-1-yl)thiophene-2-carboxylic acid]",> 20 mM

# System: A549 cells
# Assay: Cytotoxicity against A549 cells, Alamar Blue
# Type: cell-based
# Conditions: Homo sapiens, A549, 65 h; Supplementary Table 1; compound 0.5 mM; percentage of controls (n=1)
# Summary of the method: as §1
row,Structure (SMILES),viability at 500 µM
1,"O=C(O)c1cnccc1C(F)(F)F [compound 553, 4‐(trifluoromethyl)nicotinic acid]",103%
2,"O=C(O)c1cc2ccccc2cn1 [compound 555, isoquinoline‐3‐carboxylic acid hydrate]",100%
3,"OCc1ccc(-c2ccccn2)s1 [compound 556, [5‐(2‐pyridinyl)‐2‐thienyl]methanol]",93.9%
4,"NC(=S)C1=Cc2ccccc2OC1 [compound 558, 2H‐chromene‐3‐carbothioamide]",98.1%
5,"CN1CCN(c2ccccc2N)CC1 [compound 561, 2‐(4‐methylpiperazin‐1‐yl)aniline]",101%
6,"OCc1ccc(OC(F)(F)F)cc1 [compound 563, [4‐(trifluoromethoxy)phenyl]methanol]",92.9%
7,"OCc1csc(-c2cccnc2)n1 [compound 566, (2‐pyridin‐3‐yl‐1,3‐thiazol‐4‐yl)methanol]",104%
8,"Nc1ccc(CN2CCOCC2)cc1 [compound 567, 4‐(morpholinomethyl)aniline]",103%
9,"OCc1ccnc(N2CCCCC2)c1 [compound 568, (2‐piperidinopyrid‐4‐yl)methanol]",103%
10,"Nc1ccccc1CN1CCOCC1 [compound 570, 2‐(morpholin‐4‐ylmethyl)aniline]",104%
11,"NCc1ccccc1N1CCOCC1 [compound 571, 2‐morpholinobenzylamine]",70.9%
12,"OCc1cccnc1N1CCCCC1 [compound 572, (2‐piperidino‐3‐pyridinyl)methanol]",80.1%
13,"c1ccc(Sc2ccsc2)cc1 [compound 574, 3‐(phenylthio)thiophene]",93.9%
14,"O=C(O)c1sccc1-n1cccc1 [compound 577, 3-(1H-pyrrol-1-yl)thiophene-2-carboxylic acid]",90.4%
15,"OCc1ccc(N2CCOCC2)cc1 [compound 578, (4‐morpholin‐4‐yl‐phenyl)‐methanol]",75.4%
16,"OCc1cccc(N2CCOCC2)c1 [compound 579, (3‐morpholinophenyl)methanol]",101%
17,"OCc1ccccc1N1CCOCC1 [compound 580, (2‐morpholinophenyl)methanol]",123%
18,"Cc1cc(C(=O)O)c(C(F)(F)F)o1 [compound 583, 5‐methyl‐2‐(trifluoromethyl)‐3‐furoic acid]",59.6%
19,"CC(=O)c1cc(Cl)sc1Cl [compound 590, 1‐(2,5‐dichloro‐3‐thienyl)ethan‐1‐one]",130%

# Target: T1, TbINO1 (Trypanosoma brucei brucei, UniProt Q5QQ46)
# T1 sequence (Q5QQ46 1-528): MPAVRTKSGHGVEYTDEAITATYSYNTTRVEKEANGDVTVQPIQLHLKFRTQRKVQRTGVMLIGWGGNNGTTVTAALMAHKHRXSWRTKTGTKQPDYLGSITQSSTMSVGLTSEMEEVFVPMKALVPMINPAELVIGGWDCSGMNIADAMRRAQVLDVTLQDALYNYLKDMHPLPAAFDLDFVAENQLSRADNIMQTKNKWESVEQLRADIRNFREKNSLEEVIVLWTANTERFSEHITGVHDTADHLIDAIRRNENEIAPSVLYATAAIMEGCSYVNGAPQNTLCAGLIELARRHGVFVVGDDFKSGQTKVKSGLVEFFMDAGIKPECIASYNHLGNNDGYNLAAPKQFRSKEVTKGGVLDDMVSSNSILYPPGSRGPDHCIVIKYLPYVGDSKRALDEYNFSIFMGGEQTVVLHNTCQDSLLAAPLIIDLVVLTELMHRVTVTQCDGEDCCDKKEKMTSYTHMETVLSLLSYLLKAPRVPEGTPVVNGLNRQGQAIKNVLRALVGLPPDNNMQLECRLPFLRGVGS
# Assay: biochemical
# Type: binding
# Conditions: Supplementary Table 1; compound 1mM; mean ± SD from Boltzman curve fitting; read-out: Tb Ino1 Tm Shift [˚C]
row,Structure (SMILES),ΔTm at 1000 µM
1,"O=C(O)c1cc2ccccc2cn1 [compound 555, isoquinoline‐3‐carboxylic acid hydrate]",0.5 ± 0.09 °C
2,"CN1CCN(c2ccccc2N)CC1 [compound 561, 2‐(4‐methylpiperazin‐1‐yl)aniline]",0.46 ± 0.07 °C

# Same assay, conditions: read-out: Tb Ino1 Tm Shift [˚C]
row,Structure (SMILES),ΔTm at 1000 µM
1,"OCc1ccc(OC(F)(F)F)cc1 [compound 563, [4‐(trifluoromethoxy)phenyl]methanol]",0.01 ± 0.07 °C
2,"OCc1csc(-c2cccnc2)n1 [compound 566, (2‐pyridin‐3‐yl‐1,3‐thiazol‐4‐yl)methanol]",0.29 ± 0.07 °C
3,"NCc1ccccc1N1CCOCC1 [compound 571, 2‐morpholinobenzylamine]",0.06 ± 0.07 °C
4,"OCc1ccccc1N1CCOCC1 [compound 580, (2‐morpholinophenyl)methanol]",0.34 ± 0.06 °C
5,"CC(=O)c1cc(Cl)sc1Cl [compound 590, 1‐(2,5‐dichloro‐3‐thienyl)ethan‐1‐one]",0.3 ± 0.07 °C

# Results, then the compound that gave them:
row,ΔTm at 1000 µM,Structure (SMILES)
1,0.28 ± 0.07 °C,"O=C(O)c1cnccc1C(F)(F)F [compound 553, 4‐(trifluoromethyl)nicotinic acid]"
2,0.19 ± 0.08 °C,"OCc1ccc(-c2ccccn2)s1 [compound 556, [5‐(2‐pyridinyl)‐2‐thienyl]methanol]"
3,0.05 ± 0.09 °C,"NC(=S)C1=Cc2ccccc2OC1 [compound 558, 2H‐chromene‐3‐carbothioamide]"
4,0.61 ± 0.05 °C,"Nc1ccc(CN2CCOCC2)cc1 [compound 567, 4‐(morpholinomethyl)aniline]"
5,0.03 ± 0.07 °C,"OCc1ccnc(N2CCCCC2)c1 [compound 568, (2‐piperidinopyrid‐4‐yl)methanol]"
6,0.35 ± 0.05 °C,"Nc1ccccc1CN1CCOCC1 [compound 570, 2‐(morpholin‐4‐ylmethyl)aniline]"
7,1.25 ± 0.09 °C,"OCc1cccnc1N1CCCCC1 [compound 572, (2‐piperidino‐3‐pyridinyl)methanol]"
8,0.11 ± 0.07 °C,"c1ccc(Sc2ccsc2)cc1 [compound 574, 3‐(phenylthio)thiophene]"
9,0.17 ± 0.08 °C,"OCc1ccc(N2CCOCC2)cc1 [compound 578, (4‐morpholin‐4‐yl‐phenyl)‐methanol]"
10,0.18 ± 0.08 °C,"OCc1cccc(N2CCOCC2)c1 [compound 579, (3‐morpholinophenyl)methanol]"
11,0.06 ± 0.07 °C,"Cc1cc(C(=O)O)c(C(F)(F)F)o1 [compound 583, 5‐methyl‐2‐(trifluoromethyl)‐3‐furoic acid]"

# Same assay, conditions: read-out: TbIno1 Tm shift [°C]
row,ΔTm at 1000 µM,Structure (SMILES)
1,2.78 ± 0.08 °C,"O=C(O)c1sccc1-n1cccc1 [compound 577, 3-(1H-pyrrol-1-yl)thiophene-2-carboxylic acid]"
